The target of one assay is T1, β-galactosidase (Aspergillus oryzae, UniProt Q2UCU3).
T1 sequence (Q2UCU3 19-1005): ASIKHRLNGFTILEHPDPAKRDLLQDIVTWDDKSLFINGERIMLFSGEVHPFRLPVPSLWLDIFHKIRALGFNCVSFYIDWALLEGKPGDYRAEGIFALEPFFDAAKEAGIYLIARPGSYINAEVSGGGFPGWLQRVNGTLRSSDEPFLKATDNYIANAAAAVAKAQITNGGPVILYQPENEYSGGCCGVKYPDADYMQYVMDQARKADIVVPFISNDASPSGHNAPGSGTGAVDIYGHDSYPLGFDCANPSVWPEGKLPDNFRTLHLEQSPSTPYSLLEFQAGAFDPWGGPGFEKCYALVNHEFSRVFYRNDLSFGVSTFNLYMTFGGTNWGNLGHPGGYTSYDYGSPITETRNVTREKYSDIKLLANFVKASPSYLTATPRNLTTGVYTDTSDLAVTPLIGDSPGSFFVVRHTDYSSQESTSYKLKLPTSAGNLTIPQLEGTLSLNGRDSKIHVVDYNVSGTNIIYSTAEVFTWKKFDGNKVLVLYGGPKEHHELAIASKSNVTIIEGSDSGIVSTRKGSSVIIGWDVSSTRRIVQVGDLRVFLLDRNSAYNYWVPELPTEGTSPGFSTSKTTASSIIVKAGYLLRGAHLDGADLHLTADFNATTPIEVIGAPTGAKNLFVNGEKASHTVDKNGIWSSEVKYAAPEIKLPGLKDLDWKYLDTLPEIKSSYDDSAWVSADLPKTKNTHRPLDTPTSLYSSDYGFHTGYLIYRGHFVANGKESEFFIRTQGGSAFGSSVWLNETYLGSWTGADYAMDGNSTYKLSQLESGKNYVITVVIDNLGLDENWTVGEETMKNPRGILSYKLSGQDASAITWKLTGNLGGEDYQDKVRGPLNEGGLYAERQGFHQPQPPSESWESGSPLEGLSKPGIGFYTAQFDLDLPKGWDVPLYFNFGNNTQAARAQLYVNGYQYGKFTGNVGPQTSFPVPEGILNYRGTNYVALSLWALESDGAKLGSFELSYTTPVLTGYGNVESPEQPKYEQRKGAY
It counts as biochemical.

The target of assay [1] is Vibrio cholerae sialidase (type III) (Vibrio cholerae serotype O1, UniProt P0C6E9). Briefly: biochemical. It counts as biochemical. To be noted: for IC50: V. cholerae.
Sequence of Vibrio cholerae sialidase (type III) (P0C6E9 25-781 limits assumed): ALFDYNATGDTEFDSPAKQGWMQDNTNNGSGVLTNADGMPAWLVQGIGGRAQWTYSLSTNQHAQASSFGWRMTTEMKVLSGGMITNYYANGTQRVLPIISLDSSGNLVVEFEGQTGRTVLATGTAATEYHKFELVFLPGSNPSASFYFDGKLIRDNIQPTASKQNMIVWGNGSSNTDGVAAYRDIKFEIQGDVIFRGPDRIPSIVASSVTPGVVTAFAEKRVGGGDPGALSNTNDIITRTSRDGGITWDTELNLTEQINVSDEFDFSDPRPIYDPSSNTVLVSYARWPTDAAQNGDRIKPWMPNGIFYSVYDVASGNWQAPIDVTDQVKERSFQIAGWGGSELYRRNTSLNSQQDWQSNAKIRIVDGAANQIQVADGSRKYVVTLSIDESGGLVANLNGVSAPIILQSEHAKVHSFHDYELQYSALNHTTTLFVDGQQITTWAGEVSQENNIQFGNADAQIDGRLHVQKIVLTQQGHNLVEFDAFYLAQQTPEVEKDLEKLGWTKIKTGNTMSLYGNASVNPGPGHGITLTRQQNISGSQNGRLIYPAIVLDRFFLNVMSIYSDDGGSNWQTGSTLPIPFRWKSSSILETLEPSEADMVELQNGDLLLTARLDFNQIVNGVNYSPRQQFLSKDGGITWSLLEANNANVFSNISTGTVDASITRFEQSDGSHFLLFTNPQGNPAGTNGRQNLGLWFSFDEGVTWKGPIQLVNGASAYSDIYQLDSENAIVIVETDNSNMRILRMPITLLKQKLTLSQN
Assay [2] deals with Salmonella typhimurium sialidase (Salmonella typhimurium, UniProt P29768). Briefly: biochemical.
Sequence of Salmonella typhimurium sialidase (P29768 whole entry): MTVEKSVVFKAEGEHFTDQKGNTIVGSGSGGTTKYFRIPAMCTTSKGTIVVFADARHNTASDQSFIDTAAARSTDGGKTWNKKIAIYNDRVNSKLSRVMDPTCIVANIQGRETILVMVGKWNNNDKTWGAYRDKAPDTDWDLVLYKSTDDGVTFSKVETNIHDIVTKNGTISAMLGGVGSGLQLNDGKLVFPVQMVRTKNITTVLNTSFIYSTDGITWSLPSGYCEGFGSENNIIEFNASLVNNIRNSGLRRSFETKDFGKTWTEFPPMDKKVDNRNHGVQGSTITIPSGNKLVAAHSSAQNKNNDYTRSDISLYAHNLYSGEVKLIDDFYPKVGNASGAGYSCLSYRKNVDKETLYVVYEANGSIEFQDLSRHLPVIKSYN
Assay [3] concerns the target Streptococcus pneumoniae sialidase NanB (Streptococcus pneumoniae serotype 4, UniProt Q54727). Briefly: biochemical.
The target in assay [4] is human cytosolic sialidase NEU2 (Homo sapiens, UniProt Q9Y3R4). Briefly: biochemical. To be noted: for IC50: IC50 with Neu5Acα2–3GalβpNP as sialidase substrate, NEU2. It counts as biochemical.
Sequence of human cytosolic sialidase NEU2 (Q9Y3R4 whole entry): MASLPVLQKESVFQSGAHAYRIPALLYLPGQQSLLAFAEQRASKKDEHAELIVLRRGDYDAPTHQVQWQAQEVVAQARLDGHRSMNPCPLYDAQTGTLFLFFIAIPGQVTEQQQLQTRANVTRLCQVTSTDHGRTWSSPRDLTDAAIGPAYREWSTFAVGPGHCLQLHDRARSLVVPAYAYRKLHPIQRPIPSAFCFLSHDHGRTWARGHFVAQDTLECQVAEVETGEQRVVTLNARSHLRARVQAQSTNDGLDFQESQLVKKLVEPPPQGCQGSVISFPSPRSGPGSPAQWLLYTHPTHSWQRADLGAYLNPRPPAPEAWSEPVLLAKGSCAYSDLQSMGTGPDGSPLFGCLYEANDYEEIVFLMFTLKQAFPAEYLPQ
[5] abbreviates: IC50 with Neu5Acα2–3GalβpNP as sialidase substrate.
The mark [6] stands for this setting: IC50 with Neu5Acα2–6GalβpNP as sialidase substrate.

Some results are limits rather than exact numbers.

Sequence of Streptococcus pneumoniae sialidase NanB (Q54727 30-697): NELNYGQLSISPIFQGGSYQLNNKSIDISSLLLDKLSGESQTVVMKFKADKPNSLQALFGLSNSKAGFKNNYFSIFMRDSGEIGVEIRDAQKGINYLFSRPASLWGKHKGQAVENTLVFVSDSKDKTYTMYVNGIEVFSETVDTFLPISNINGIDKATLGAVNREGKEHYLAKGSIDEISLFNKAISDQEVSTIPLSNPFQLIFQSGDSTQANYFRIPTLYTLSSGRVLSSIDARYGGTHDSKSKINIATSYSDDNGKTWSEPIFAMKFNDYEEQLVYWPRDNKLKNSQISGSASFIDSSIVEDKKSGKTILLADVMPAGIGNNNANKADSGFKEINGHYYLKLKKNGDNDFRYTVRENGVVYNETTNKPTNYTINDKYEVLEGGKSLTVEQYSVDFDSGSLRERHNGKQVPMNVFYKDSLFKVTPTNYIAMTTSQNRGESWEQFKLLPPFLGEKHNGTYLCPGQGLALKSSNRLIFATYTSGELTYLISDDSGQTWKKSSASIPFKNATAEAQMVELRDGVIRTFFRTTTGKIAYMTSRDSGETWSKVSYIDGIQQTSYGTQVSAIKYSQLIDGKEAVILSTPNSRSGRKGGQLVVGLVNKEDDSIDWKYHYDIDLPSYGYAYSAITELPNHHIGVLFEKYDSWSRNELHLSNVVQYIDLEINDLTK

Turning to `CC(=O)N[C@H]1[C@H]([C@H](O)[C@H](O)CO)OC(C(=O)O)=C[C@@H]1O` [Neu5Ac2en (1), 2-deoxy-2,3-dehydro-N-acetylneuraminic acid, reference compound], the “inhibitory effect against β-galactosidase” value (shortened to “inhibitory effect”) against β-galactosidase is listed as “no inhibitory effect”.
For the molecule `COC[C@@H](O)[C@@H](O)[C@@H]1OC(C(=O)O)=C[C@H](O)[C@H]1NC(C)=O` [Neu5Ac9Me2en (6), 5-Acetamido-2,6-anhydro-3,5-dideoxy-9-O-methyl-D-glycero-D-galacto-non-2-enonic acid], the IC50 (in general, the concentration that inhibits the measured activity by half) in assay [1] (setting [5]) turned out to be 130 µM; in assay [1] (setting [6]) it was 120 µM; in assay [2] it was 130 µM; in assay [3], 3000 µM; in assay [4], 1100 µM. Further, the “inhibitory effect” value against β-galactosidase was “no inhibitory effect”.
As for `CC(=O)N[C@H]1[C@H]([C@H](O)[C@H](O)CN=[N+]=[N-])OC(C(=O)O)=C[C@@H]1O` [Neu5Ac9N32en (3), 5-Acetamido-2,6-anhydro-9-azido-3,5,9-trideoxy-D-glycero-D-galacto-non-2-enonic acid], in assay [1], the “fold less efficient than Neu5Ac2en (1) against V. cholerae sialidase” value is on record as 2.3 fold. The IC50 came to 8.7 ± 1 µM in assay [1] (setting [6]), 210 µM in assay [2], 3300 µM in assay [3] and 43 ± 2 µM in assay [4]. Besides, the “fold less efficient than Neu5Ac2en (1) against human NEU2” value in assay [4] was found to be 2.4 fold. Moreover, the “inhibitory effect” value at β-galactosidase is on record as “no inhibitory effect”.
For `CCCNC[C@@H](O)[C@@H](O)[C@@H]1OC(C(=O)O)=C[C@H](O)[C@H]1NC(C)=O` [Neu5Ac9NPro2en (7), 5-Acetamido-9-aminopropyl-2,6-anhydro-3,5,9-trideoxy-D-glycero-D-galacto-non-2-enonic acid], the IC50 is over 1000 µM in assay [1] (setting [5]), over 1000 µM in assay [1] (setting [6]), 2300 µM in assay [2] and 5400 µM in assay [3]. Besides, at β-galactosidase, the “inhibitory effect” value was “no inhibitory effect”.
Take `[N-]=[N+]=NCC(=O)N[C@H]1[C@H]([C@H](O)[C@H](O)CN=[N+]=[N-])OC(C(=O)O)=C[C@@H]1O` [Neu5AcN39N32en (5), 2,6-Anhydro-9-azido-5-(2-azidoacetamido)-3,5,9-trideoxy-D-glycero-D-galacto-non-2-enonic acid]: the 50% inhibitory concentration (IC50) in assay [1] (setting [5]) was 140 µM; in assay [1] (setting [6]), 110 µM; in assay [2], 16000 µM; in assay [3] it was over 1000 µM. Moreover, the “inhibitory effect” value against β-galactosidase is given as “no inhibitory effect”.
Take `[N-]=[N+]=NC[C@@H](O)[C@@H](O)[C@@H]1OC(C(=O)O)=C[C@H](O)[C@H]1NC(=O)CO` [Neu5Gc9N32en (4), 2,6-Anhydro-9-azido-3,5,9-trideoxy-5-(2-hydroxyacetamido)-D-glycero-D-galacto-non-2-enonic acid]: the “selectivity for V. cholerae sialidase among the five sialidases tested” value in assay [1] is “selective inhibitor”. In addition, the half-inhibitory concentration (IC50) is 18 ± 3 µM in assay [1] (setting [5]); 13 ± 2 µM in assay [1] (setting [6]); over 10000 µM in assay [2]; over 10000 µM in assay [3]; 150 µM in assay [4]. Besides, the “inhibitory effect” value at β-galactosidase was “no inhibitory effect”.

These data come from paper PMC11302589 (Organic & biomolecular chemistry, 2012).
